Species on record: Rattus norvegicus
Experiment: Open TG-GATES - Regimen: Single
Type: toxicity, organism-based, Sprague-Dawley
Design: regimen Single, gender Male, age 6 weeks
Conditions: in vivo, po, 120 mg/kg, route gavage, dose level Middle; for KIDNEY_L / KIDNEY_R / KIDNEY_TOTAL: tissue Kidney; for LIVER: tissue Liver; for ALP / ALT / AST / BUN / CRE / Ca / Cl / DBIL / GLC / IP / LDH / Na / PL / RALB / TBIL / TC / TG / TP / gamma-GTP: tissue Plasma

Compound `CC(C)N(CCC(C(N)=O)(c1ccccc1)c1ccccn1)C(C)C` (centres undefined) [DISOPYRAMIDE] has a Bas (3 h, tissue Blood) of 0%, an Eos (3 h, tissue Blood) of 0.8% and a Fbg (3 h, tissue Blood) of 307.4 mg/dL. It also gave a Ht (3 h, tissue Blood) of 41.8%, a Lym (3 h, tissue Blood) of 77.4% and an MCHC (3 h, tissue Blood) of 32.3%. For the same compound, the MCV (3 h, tissue Blood) was 62.8 fL, the Mono (3 h, tissue Blood) was 2.2% and the Neu (3 h, tissue Blood) was 19%. It also gave a PT (3 h, tissue Blood) of 15.5 s, a Plat (3 h, tissue Blood) of 121.9 x10_4/uL and an RBC (3 h, tissue Blood) of 665.8 x10_4/ul. It also gave a Ret (3 h, tissue Blood) of 7.4%, a WBC (3 h, tissue Blood) of 63.5 x10_2/uL and a KIDNEY_L (3 h) of 0.9 g. The KIDNEY_R (3 h) was 1 g, the KIDNEY_TOTAL (3 h) was 1.9 g and the LIVER (3 h) was 9.5 g. It also gave an ALP (3 h) of 1368.8 IU/L, an ALT (3 h) of 51.2 IU/L and an AST (3 h) of 89.2 IU/L. For the same compound, the BUN (3 h) was 10.6 mg/dL, the CRE (3 h) was 0.2 mg/dL and the Ca (3 h) was 10.4 mg/dL. It also gave a Cl (3 h) of 106 meq/L, a DBIL (3 h) of 0.002 mg/dL and a GLC (3 h) of 161 mg/dL. For the same compound, the IP (3 h) was 8.5 mg/dL, the LDH (3 h) was 202.4 IU/L and the Na (3 h) was 141.6 meq/L. The PL (3 h) was 124 mg/dL, the RALB (3 h) was 3.1 g/dL and the TBIL (3 h) was 0.002 mg/dL. The TC (3 h) was 70.6 mg/dL, the TG (3 h) was 47 mg/dL and the TP (3 h) was 5.6 g/dL. The gamma-GTP (3 h) was 1 IU/L, the TERMINAL_BW (6 h) was 209.6 g and the APTT (6 h, tissue Blood) was 22.7 s. The Bas (6 h, tissue Blood) was 0%, the Eos (6 h, tissue Blood) was 0.8% and the Fbg (6 h, tissue Blood) was 320.6 mg/dL. The Hb (6 h, tissue Blood) was 12.9 g/dL, the Ht (6 h, tissue Blood) was 40.3% and the Lym (6 h, tissue Blood) was 72.2%. The MCHC (6 h, tissue Blood) was 31.9%, the MCV (6 h, tissue Blood) was 63.4 fL and the Mono (6 h, tissue Blood) was 2.6%. It also gave a Neu (6 h, tissue Blood) of 23.4%, a PT (6 h, tissue Blood) of 15.5 s and a Plat (6 h, tissue Blood) of 123.1 x10_4/uL. The RBC (6 h, tissue Blood) was 635.2 x10_4/ul, the Ret (6 h, tissue Blood) was 7.7% and the WBC (6 h, tissue Blood) was 86 x10_2/uL. It also gave a KIDNEY_L (6 h) of 0.9 g, a KIDNEY_R (6 h) of 1 g and a KIDNEY_TOTAL (6 h) of 1.9 g. It also gave an LIVER (6 h) of 9.2 g, an ALP (6 h) of 1458 IU/L and an ALT (6 h) of 41.2 IU/L. It also gave an AST (6 h) of 72.6 IU/L, a BUN (6 h) of 11.6 mg/dL and a CRE (6 h) of 0.2 mg/dL. It also gave a Ca (6 h) of 10.7 mg/dL, a Cl (6 h) of 106 meq/L and a DBIL (6 h) of 0.002 mg/dL. The GLC (6 h) was 159.2 mg/dL, the IP (6 h) was 9.1 mg/dL and the LDH (6 h) was 198.6 IU/L. It also gave a Na (6 h) of 139.4 meq/L, a PL (6 h) of 142 mg/dL and an RALB (6 h) of 3 g/dL. For the same compound, the TBIL (6 h) was 0.002 mg/dL, the TC (6 h) was 80.8 mg/dL and the TG (6 h) was 82.2 mg/dL. It also gave a TP (6 h) of 5.6 g/dL, a gamma-GTP (6 h) of 1.4 IU/L and a TERMINAL_BW (9 h) of 199.9 g. The APTT (9 h, tissue Blood) was 21.7 s, the Bas (9 h, tissue Blood) was 0% and the Eos (9 h, tissue Blood) was 0.8%. It also gave a Fbg (9 h, tissue Blood) of 330 mg/dL, a Ht (9 h, tissue Blood) of 41.9% and a Lym (9 h, tissue Blood) of 77.2%. For the same compound, the MCHC (9 h, tissue Blood) was 32.4%, the MCV (9 h, tissue Blood) was 64.1 fL and the Mono (9 h, tissue Blood) was 1.8%. It also gave a Neu (9 h, tissue Blood) of 19.8%, a PT (9 h, tissue Blood) of 15.7 s and a Plat (9 h, tissue Blood) of 117.5 x10_4/uL. It also gave an RBC (9 h, tissue Blood) of 653.4 x10_4/ul, a Ret (9 h, tissue Blood) of 7.3% and a WBC (9 h, tissue Blood) of 61.1 x10_2/uL. For the same compound, the KIDNEY_L (9 h) was 0.9 g, the KIDNEY_R (9 h) was 1 g and the KIDNEY_TOTAL (9 h) was 1.9 g. The LIVER (9 h) was 8.3 g, the ALP (9 h) was 1309 IU/L and the ALT (9 h) was 35.6 IU/L. The AST (9 h) was 67.6 IU/L, the BUN (9 h) was 13.6 mg/dL and the CRE (9 h) was 0.2 mg/dL. The Ca (9 h) was 10.7 mg/dL, the Cl (9 h) was 107.6 meq/L and the DBIL (9 h) was 0 mg/dL. The GLC (9 h) was 149.6 mg/dL, the IP (9 h) was 8.9 mg/dL and the LDH (9 h) was 166 IU/L. For the same compound, the Na (9 h) was 140.8 meq/L, the PL (9 h) was 121 mg/dL and the RALB (9 h) was 3.1 g/dL. The TBIL (9 h) was 0.006 mg/dL, the TC (9 h) was 63.2 mg/dL and the TG (9 h) was 74 mg/dL. The TP (9 h) was 5.6 g/dL, the gamma-GTP (9 h) was 1.2 IU/L and the TERMINAL_BW (24 h) was 220.9 g. For the same compound, the APTT (24 h, tissue Blood) was 21 s, the Bas (24 h, tissue Blood) was 0% and the Eos (24 h, tissue Blood) was 1%. The Fbg (24 h, tissue Blood) was 319 mg/dL, the Ht (24 h, tissue Blood) was 40.2% and the Lym (24 h, tissue Blood) was 80.8%. It also gave an MCHC (24 h, tissue Blood) of 32.7%, an MCV (24 h, tissue Blood) of 64.1 fL and a Mono (24 h, tissue Blood) of 1.8%. For the same compound, the Neu (24 h, tissue Blood) was 15.6%, the PT (24 h, tissue Blood) was 15.8 s and the Plat (24 h, tissue Blood) was 119.1 x10_4/uL. The RBC (24 h, tissue Blood) was 627.6 x10_4/ul, the Ret (24 h, tissue Blood) was 7.3% and the WBC (24 h, tissue Blood) was 89.5 x10_2/uL. For the same compound, the KIDNEY_L (24 h) was 1 g, the KIDNEY_R (24 h) was 1 g and the KIDNEY_TOTAL (24 h) was 2 g. The LIVER (24 h) was 11.2 g, the ALP (24 h) was 1568 IU/L and the ALT (24 h) was 53.6 IU/L. For the same compound, the AST (24 h) was 76.6 IU/L, the BUN (24 h) was 14.6 mg/dL and the CRE (24 h) was 0.2 mg/dL. For the same compound, the Ca (24 h) was 10.9 mg/dL, the Cl (24 h) was 105.6 meq/L and the DBIL (24 h) was 0 mg/dL. It also gave an IP (24 h) of 8.9 mg/dL, an LDH (24 h) of 160 IU/L and a Na (24 h) of 143.4 meq/L. The PL (24 h) was 157 mg/dL, the RALB (24 h) was 3 g/dL and the TBIL (24 h) was 0 mg/dL. The TC (24 h) was 82.2 mg/dL, the TG (24 h) was 118.2 mg/dL and the TP (24 h) was 5.5 g/dL. For the same compound, the gamma-GTP (24 h) was 1.6 IU/L.
